According to ChEMBL document CHEMBL1201862, “PubChem BioAssay data set” (2004):
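Protocol summary: plate cells (96-well), add compound at 5 concentrations, incubate 48 h, interpolate endpoints linearly. The concentration for 50% growth inhibition is given as GI50.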 Active and inactive are the calls of the source. No stated cut-off is given here; in the data, active = GI50 up to about 1.1 µM and inactive = higher.

Tests used:
Test in all cases: DTP human tumour cell line panel, 48 h
OVCAR-3 = tested on: OVCAR-3
MDA-MB-435 = tested on: MDA-MB-435
HCT-116 = tested on: HCT-116
CCRF-CEM = tested on: CCRF-CEM
SR = tested on: SR
UACC-257 = tested on: UACC-257
IGROV-1 = tested on: IGROV-1
786-0 = tested on: 786-0
COLO 205 = tested on: COLO 205
OVCAR-4 = tested on: OVCAR-4
M14 = tested on: M14
HOP-92 = tested on: HOP-92
CAKI-1 = tested on: CAKI-1
UACC-62 = tested on: UACC-62
SW-620 = tested on: SW-620
SK-MEL-5 = tested on: SK-MEL-5
MDA-N = tested on: MDA-N
A549 = tested on: A549
KM12 = tested on: KM12
BT-549 = tested on: BT-549

SMILES	GI50 (OVCAR-3)	GI50 (MDA-MB-435)	GI50 (HCT-116)	GI50 (CCRF-CEM)	GI50 (SR)	GI50 (UACC-257)	GI50 (IGROV-1)	GI50 (786-0)	GI50 (COLO 205)	GI50 (OVCAR-4)	GI50 (M14)	GI50 (HOP-92)	GI50 (CAKI-1)	GI50 (UACC-62)	GI50 (SW-620)	GI50 (SK-MEL-5)	GI50 (MDA-N)	GI50 (A549)	GI50 (KM12)	GI50 (BT-549)
Cc1ccc(/C=c2\cc3oc(=O)c4cccc(c4-3)c2=O)cc1	72.1 µM (inactive)	> 100 µM (inactive)	> 100 µM (inactive)	19.6 µM (inactive)	34.1 µM (inactive)	> 100 µM (inactive)	88.3 µM (inactive)	> 100 µM (inactive)	> 100 µM (inactive)	> 100 µM (inactive)	> 100 µM (inactive)	> 100 µM (inactive)	> 100 µM (inactive)	> 100 µM (inactive)	> 100 µM (inactive)					
O=C1c2ccccc2CC12Cc1cc3c(cc1C2=O)CCC3 (stereo not drawn)	> 100 µM (inactive)	> 100 µM (inactive)	> 100 µM (inactive)	> 100 µM (inactive)	> 100 µM (inactive)	> 100 µM (inactive)	> 100 µM (inactive)	> 100 µM (inactive)		> 100 µM (inactive)	> 100 µM (inactive)	> 100 µM (inactive)	> 100 µM (inactive)		> 100 µM (inactive)	> 100 µM (inactive)	> 100 µM (inactive)	> 100 µM (inactive)		
Cc1cccc(C)c1NC(=O)CCCC(=O)C1/C(=N/NC(=O)CC#N)CCC/C1=N\NC(=O)CC#N (stereo not drawn)	> 100 µM (inactive)		> 100 µM (inactive)	> 100 µM (inactive)	> 100 µM (inactive)	> 100 µM (inactive)	> 100 µM (inactive)	> 100 µM (inactive)	> 100 µM (inactive)	> 100 µM (inactive)	> 100 µM (inactive)	48.8 µM (inactive)	> 100 µM (inactive)	> 100 µM (inactive)	> 100 µM (inactive)	> 100 µM (inactive)		> 100 µM (inactive)	> 100 µM (inactive)	
CCCCC/C=C1\CCC(CN(C)C)C1=O (stereo not drawn)	15.6 µM (inactive)		11.8 µM (inactive)	1.56 µM (inactive)	3.79 µM (inactive)	16.3 µM (inactive)	17.5 µM (inactive)	2.71 µM (inactive)	8.99 µM (inactive)	20.1 µM (inactive)	14.1 µM (inactive)	11.5 µM (inactive)	7.05 µM (inactive)	15.9 µM (inactive)	3.76 µM (inactive)	18.2 µM (inactive)		34.1 µM (inactive)	4.8 µM (inactive)	
CCCCCCCCCCCC(=O)OCCOCCOCCOCCOCCOC(=O)CCCCCCCCCCC	> 100 µM (inactive)		> 100 µM (inactive)	> 100 µM (inactive)	> 100 µM (inactive)	> 100 µM (inactive)	> 100 µM (inactive)	> 100 µM (inactive)	> 100 µM (inactive)	> 100 µM (inactive)	> 100 µM (inactive)	> 100 µM (inactive)	> 100 µM (inactive)	56.2 µM (inactive)	> 100 µM (inactive)	> 100 µM (inactive)		> 100 µM (inactive)	> 100 µM (inactive)	
CCN1C(c2ccccc2)=CC(c2ccccc2)(C(Cl)(Cl)Cl)C=C1c1ccccc1	7 µM (inactive)	2.74 µM (inactive)	4.66 µM (inactive)	5.58 µM (inactive)	> 10 µM (inactive)	4.56 µM (inactive)	4.7 µM (inactive)	9.44 µM (inactive)		24 µM (inactive)	4.35 µM (inactive)	3.11 µM (inactive)	30.8 µM (inactive)		7.82 µM (inactive)	1.7 µM (inactive)	4.94 µM (inactive)	32.4 µM (inactive)	3.31 µM (inactive)	
COc1ccc(-c2c3c(n(C4OC(COC(C)=O)C(OC(C)=O)C(OC(C)=O)C4OC(C)=O)c(=S)c2C#N)CCCC3)cc1 (stereo not drawn)	19.6 µM (inactive)	> 100 µM (inactive)	79.4 µM (inactive)	25.5 µM (inactive)	> 100 µM (inactive)	> 100 µM (inactive)	28.8 µM (inactive)	> 100 µM (inactive)	69.5 µM (inactive)	25.5 µM (inactive)	> 100 µM (inactive)		20.5 µM (inactive)	20 µM (inactive)	51.5 µM (inactive)	34.4 µM (inactive)	91.4 µM (inactive)	64.1 µM (inactive)	> 100 µM (inactive)	
Cc1cc(=O)oc2c(CNC(CC(C)C)C(=O)O)c(O)ccc12 (stereo not drawn)	> 100 µM (inactive)	> 100 µM (inactive)	> 100 µM (inactive)		> 100 µM (inactive)	> 100 µM (inactive)	> 100 µM (inactive)	> 100 µM (inactive)	> 100 µM (inactive)	> 100 µM (inactive)	> 100 µM (inactive)	> 100 µM (inactive)	> 100 µM (inactive)	> 100 µM (inactive)	> 100 µM (inactive)	> 100 µM (inactive)	> 100 µM (inactive)	> 100 µM (inactive)	> 100 µM (inactive)	
COC(=O)c1ccc(/C=C(\c2ccc([N+](=O)[O-])o2)S(=O)(=O)c2ccc(NC(C)=O)cc2)o1	5.9 µM (inactive)	3.82 µM (inactive)	2.46 µM (inactive)		1.77 µM (inactive)	1.98 µM (inactive)	12.9 µM (inactive)	3.43 µM (inactive)	2.9 µM (inactive)	2.22 µM (inactive)	4.14 µM (inactive)	10.3 µM (inactive)	15.4 µM (inactive)	2 µM (inactive)	3.63 µM (inactive)	3.93 µM (inactive)		16.7 µM (inactive)	13.4 µM (inactive)	0.565 µM (active)
O=C(NCCS(=O)(=O)N1C(=O)C2CCCN2C(=O)[C@@H]1Cc1ccccc1)OCc1ccccc1 (stereo partly drawn)	33.5 µM (inactive)		39.5 µM (inactive)	45.4 µM (inactive)	57.1 µM (inactive)	48.2 µM (inactive)	72.6 µM (inactive)	78.9 µM (inactive)	26.2 µM (inactive)	36.7 µM (inactive)	36 µM (inactive)	27.7 µM (inactive)	> 100 µM (inactive)	40 µM (inactive)	90.4 µM (inactive)	47.4 µM (inactive)		41.1 µM (inactive)	44.2 µM (inactive)	
O=C(O)CSc1nnc(COc2ccc(Cl)cc2)n1-c1ccccc1	> 100 µM (inactive)	> 100 µM (inactive)	> 100 µM (inactive)	> 100 µM (inactive)		> 100 µM (inactive)	> 100 µM (inactive)	> 100 µM (inactive)	> 100 µM (inactive)	> 100 µM (inactive)	> 100 µM (inactive)	> 100 µM (inactive)	> 100 µM (inactive)	> 100 µM (inactive)	> 100 µM (inactive)		> 100 µM (inactive)	> 100 µM (inactive)	> 100 µM (inactive)	
COc1ccc(CNc2nc3ccccc3nc2-c2cccs2)cc1	37.4 µM (inactive)	27.4 µM (inactive)	26.7 µM (inactive)	25.9 µM (inactive)	15.6 µM (inactive)	31.2 µM (inactive)	68.9 µM (inactive)	43.9 µM (inactive)	38.1 µM (inactive)	29.9 µM (inactive)		16.6 µM (inactive)	15.1 µM (inactive)	38.4 µM (inactive)	51.9 µM (inactive)	23.8 µM (inactive)		33.1 µM (inactive)	28.9 µM (inactive)	22.1 µM (inactive)
C=C1CC(c2ccc(O)c(OC)c2)Oc2c(OC)cccc21 (stereo not drawn)	33.9 µM (inactive)		31.2 µM (inactive)	23.8 µM (inactive)	19.7 µM (inactive)	39.3 µM (inactive)	36 µM (inactive)	58.9 µM (inactive)	> 100 µM (inactive)	54 µM (inactive)	34 µM (inactive)	14.4 µM (inactive)	34.8 µM (inactive)	35.4 µM (inactive)	34 µM (inactive)	35.7 µM (inactive)		33.7 µM (inactive)	33.7 µM (inactive)	
O=C(CC(C(=O)c1cccs1)c1cccs1)c1ccsc1 (stereo not drawn)		20.2 µM (inactive)	36.6 µM (inactive)	37.9 µM (inactive)	37.2 µM (inactive)	60 µM (inactive)	> 100 µM (inactive)	50.5 µM (inactive)	45.3 µM (inactive)	67.1 µM (inactive)	38.2 µM (inactive)		> 100 µM (inactive)	37.5 µM (inactive)	44.1 µM (inactive)	39.6 µM (inactive)	19.4 µM (inactive)	43.3 µM (inactive)	34 µM (inactive)	
COc1ccc(CC2c3cc(OC)c(OC)c(OC)c3CC[N+]2(C)C)cc1Oc1ccc(CC2c3cc4c(c(OC)c3CC[N+]2(C)C)OCO4)cc1 (stereo not drawn)		> 100 µM (inactive)	> 100 µM (inactive)	> 100 µM (inactive)	> 100 µM (inactive)	> 100 µM (inactive)	> 100 µM (inactive)	> 100 µM (inactive)	> 100 µM (inactive)	> 100 µM (inactive)	> 100 µM (inactive)	> 100 µM (inactive)	> 100 µM (inactive)	> 100 µM (inactive)	> 100 µM (inactive)	> 100 µM (inactive)		34.4 µM (inactive)	> 100 µM (inactive)	> 100 µM (inactive)
Brc1cccc[n+]1-c1ccc2cc(-[n+]3ccccc3Br)ccc2c1	19.8 µM (inactive)	80.9 µM (inactive)	39.6 µM (inactive)	34.1 µM (inactive)		> 100 µM (inactive)	11.4 µM (inactive)	26.4 µM (inactive)	31 µM (inactive)		> 100 µM (inactive)		> 100 µM (inactive)	45.1 µM (inactive)	44.5 µM (inactive)	77.3 µM (inactive)		38.9 µM (inactive)	20.8 µM (inactive)	97.9 µM (inactive)
